Measured values from patent US20250332173A1, “COMPOUNDS AND METHODS FOR MODULATING NUCLEIC ACID SPLICING” (REMIX THERAPEUTICS INC., priority 2021, published 2025).
Where two headings read alike, the source gives them in different places.

Experiments:
[1] = tested on: HTT mRNA; test: RT-qPCR splicing assay, HTT canonical junction (CJ) and alternative junction (AJ) mRNA; format: cell-based, human; details: Homo sapiens; for AC50: increase in HTT alternative junction (AJ) mRNA, read-out: HTT AJ AC50
Method: The expression of a target mRNA was measured by detecting the formation of an exon-exon junction in the canonical transcript (CJ). A compound mediated exon-inclusion event was detected by observing an increase in formation of a new junction with an alternative exon (AJ). Real-time qPCR assays were used to detect these splicing switches and interrogate the potency of various compounds towards different target genes. A high-throughput real time quantitative PCR (RT-qPCR) assay was developed to measure these two isoforms of the mRNA (CJ and AJ) for exemplary genes, such as HTT, SMN2, and MYB, together with a control housekeeping gene, GAPDH or GUSB or PPIA, used for normalization. Briefly, the A673 or K562 cell line was treated with various compounds described herein (e.g., compounds of Formula (I)). After treatment, the levels of the HTT, MYB, or SMN2 mRNA targets were determined from each sample of cell lysate by cDNA synthesis followed by qPCR.
• Cells-to-CT 1-step kit: ThermoFisher A25602, Cells-to-CT lysis reagent: ThermoFisher 4391851C, TaqMan™ Fast Virus 1-Step Master Mix: ThermoFisher 4444436 • GAPDH: VIC-PL, ThermoFisher 4326317E (Assay: Hs99999905_m1)—used for K562/suspension cell lines • GUSB: VIC-PL, ThermoFisher 4326320E (Assay: Hs99999908_m1)—used for K562/suspension cell lines • PPIA: VIC-PL, ThermoFisher 4326316E (Assay: Hs99999904_m1)—used for A673/adherent cell lines
The A673 cell line was cultured in DMEM with 10% FBS. Cells were diluted with full growth media and plated in a 96-well plate (15,000 cells in 100 ul media per well). The plate was incubated at 37° C. with 5% CO2 for 24 hours to allow cells to adhere. An 11-point 3-fold serial dilution of the compounds was made in DMSO then diluted in media in an intermediate plate. Compounds were transferred from the intermediate plate to the cell plate with the top dose at a final concentration of 10 uM in the well. Final DMSO concentration was kept at or below 0.25%. The cell plate was returned to the incubator at 37° C. with 5% CO2 for an additional 24 hours.
The K562 cell line was cultured in IMDM with 10% FBS. For K562, cells were diluted with full growth media and plated in either a 96-well plate (50,000 cells in 50 uL media per well) or a 384-well plate (8,000-40,000 cells in 45 uL media per well). An 11-point 3-fold serial dilution of the compounds were made in DMSO then diluted in media in an intermediate plate. Compound was transferred from the intermediate plate to the cell plate with the top dose at a final concentration of 10 uM in the well. Final DMSO concentration was kept at or below 0.25%. Final volume was 100 uL for 96-well plate and 50 uL for 384-well plate. The cell plate was then placed in an incubator at 37° C. with 5% CO2 for 24 hours.
The cells were then gently washed with 50 uL-100 uL cold PBS before proceeding to addition of lysis buffer. 30 uL-50 uL of room temperature lysis buffer with DNAse I (and optionally RNAsin) was added to each well. Cells were shaken/mixed thoroughly at room temperature for 5-10 minutes for lysis to take place and then 3 uL-5 uL of room temperature stop solution was added and wells were shaken/mixed again. After 2-5 minutes, the cell lysate plate was transferred to ice for RT-qPCR reaction setup. The lysates could also be frozen at −80° C. for later use.
In some cases, a direct lysis buffer was used. An appropriate volume of 3× lysis buffer (10 mM Tris, 150 mM NaCl, 1.5%-2.5% Igepal and 0.1-1 U/uL RNAsin, pH 7.4) was directly added to either K562 or A673 cells in media and mixed by pipetting 3 times. The plates were then incubated at room temperature with shaking/rocking for 20-50 minutes to allow for lysis to take place. After this time, the cell lysate plate was transferred to ice to set up for the RT-qPCR reactions. The lysates could also be frozen at −80° C. for later use.

[2] = tested on: MYB mRNA; test: RT-qPCR splicing assay, MYB canonical junction (CJ) and alternative junction (AJ) mRNA; format: cell-based, human; details: Homo sapiens; for AC50: increase in MYB alternative junction (AJ) mRNA, read-out: MYB AJ AC50
In short: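 A673 or K562 cells were treated for 24 h at 37 °C with an 11-point 3-fold compound dilution series (top final concentration 10 uM, DMSO ≤0.25%). After lysis, one-step TaqMan RT-qPCR quantified junction transcripts, normalized to PPIA for A673 or to GAPDH/GUSB for K562.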

[3] = tested on: SMN2 mRNA; test: RT-qPCR splicing assay, SMN2 canonical junction (CJ) mRNA; format: cell-based, human; details: Homo sapiens; canonical junction qPCR panel, Table 5; read-out: SMN2 (decrease in CJ mRNA levels, IC50)
In short: (§1)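 A673 or K562 cells were treated for 24 h at 37 °C with compound in 11-point 3-fold dilution (top 10 uM final, DMSO ≤0.25%). Lysates then went to one-step RT-qPCR measuring canonical-junction mRNA, normalized to GAPDH, GUSB or PPIA.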

[4] = tested on: Target C; test: RT-qPCR splicing assay panel, Target C canonical junction (CJ) mRNA; format: cell-based, human; details: Homo sapiens; canonical junction qPCR panel, Table 5; read-out: Target C (decrease in CJ mRNA levels, IC50)
In short: as §1

[5] = tested on: K562 (human chronic myelogenous leukemia) cells; test: Cell Titer Glo 2.0 cell viability assay; format: cell-based; details: Homo sapiens, K562, 72 h, K562 cells, 72 hours, Cell Titer Glo 2.0; read-out: K562 GI50
[6] = decrease in HTT canonical junction (CJ) mRNA, RT-qPCR, read-out: HTT CJ IC50
[7] = canonical junction qPCR panel, Table 5, read-out: HTT (decrease in CJ mRNA levels, IC50)
[8] = canonical junction qPCR panel, Table 5, read-out: MYB (decrease in CJ mRNA levels, IC50)
[9] = decrease in MYB canonical junction (CJ) mRNA, RT-qPCR, read-out: MYB CJ IC50

IC50 [1, 6] [nM] | IC50 [1, 7] [nM] | IC50 [2, 8] [nM] | IC50 [2, 9] [nM] | IC50 [3] [nM] | IC50 [4] [nM] | GI50 [5] [nM] | Compound | AC50 ([1]; RT-qPCR) [nM] | AC50 ([2]; RT-qPCR) [nM]
1000 to 10000 | 100 to 1000 | < 100 | 100 to 1000 | < 100 | 1000 to 10000 | < 100 | Cc1c(O)c(-c2ccc3c(=O)n(C45CCC(N)(CC4)C5)ccc3n2)cc2cn(C)nc12 [Compound 1486] | 100 to 1000 | < 100
1000 to 10000 | 100 to 1000 | 100 to 1000 | 100 to 1000 | < 100 | 1000 to 10000 | 100 to 1000 | Cc1c(O)c(-c2ncc3c(=O)n(C45CCC(N(C)C)(CC4)C5)ccc3n2)cc2cn(C)nc12 [Compound 1488] | 100 to 1000 | 100 to 1000
1000 to 10000 | 1000 to 10000 | 100 to 1000 | 100 to 1000 | < 100 | 1000 to 10000 | 100 to 1000 | Cn1cc2cc(-c3ncc4c(=O)n(C56CCC(N)(CC5)C6)ccc4n3)cc(F)c2n1 [Compound 1489, 6-(4-aminonorbornane-1-yl)-2-(7-fluoro-2-methyl-indazol-5-yl)pyrido[4,3-d]pyrimidin-5-one] | 1000 to 10000 | 100 to 1000
100 to 1000 | < 100 | < 100 | < 100 | < 100 | 100 to 1000 | 100 to 1000 | Cc1cn2cc(-c3ncc4c(=O)n([C@H]5CCN[C@H](C)C5)ccc4n3)cc(F)c2n1 [Compound 1490, 2-(8-fluoro-2-methyl-imidazo[1,2-a]pyridin-6-yl)-6-[(2R,4S)-2-methyl-4-piperidyl]pyrido[4,3-d]pyrimidin-5-one] | < 100 | < 100
100 to 1000 | 100 to 1000 | 100 to 1000 | 100 to 1000 | < 100 | 100 to 1000 | 100 to 1000 | Cc1cn2cc(-c3nc(C)c4c(=O)n(C5CCNCC5)ccc4n3)cc(F)c2n1 [Compound 1491, 2-(8-fluoro-2-methyl-imidazo[1,2-a]pyridin-6-yl)-4-methyl-6-(4-piperidyl)pyrido[4,3-d]pyrimidin-5-one] | 100 to 1000 | 100 to 1000
1000 to 10000 | 1000 to 10000 | 100 to 1000 | 100 to 1000 | < 100 | 1000 to 10000 | 100 to 1000 | Cc1cn2cc(-c3ccc4c(=O)n(C56CCC(N)(CC5)C6)ccc4n3)cc(F)c2n1 [Compound 1492] | 1000 to 10000 | 100 to 1000
1000 to 10000 | 1000 to 10000 | 100 to 1000 | 100 to 1000 | < 100 | 1000 to 10000 | 100 to 1000 | C[C@H]1C[C@@H](n2ccc3nc(-c4cc5cn(C)nc5cc4O)ncc3c2=O)CCN1 [Compound 1493, 2-(6-hydroxy-2-methyl-indazol-5-yl)-6-[(2S,4S)-2-methyl-4-piperidyl]pyrido[4,3-d]pyrimidin-5-one] | 1000 to 10000 | 100 to 1000
1000 to 10000 | 1000 to 10000 | 100 to 1000 | 100 to 1000 | < 100 | 1000 to 10000 | 100 to 1000 | Cc1cn2cc(-c3ccc4c(=O)n([C@H]5CCN[C@@H](C)C5)ccc4n3)cc(F)c2n1 [Compound 1494] | 1000 to 10000 | 100 to 1000
100 to 1000 | < 100 | < 100 | < 100 | < 100 | 100 to 1000 | 100 to 1000 | Cc1cn2nc(-c3ccc4c(=O)n([C@H]5CCN[C@@H](C)C5)ccc4n3)cc(C)c2n1 [Compound 1495] | < 100 | < 100
1000 to 10000 | 100 to 1000 | 100 to 1000 | 100 to 1000 | < 100 | 1000 to 10000 | 100 to 1000 | Cc1cn2cc(-c3ncc4c(=O)n([C@@H]5CCNC(C)(C)C5)ccc4n3)cc(F)c2n1 [Compound 1496, 6-[(4R)-2,2-dimethyl-4-piperidyl]-2-(8-fluoro-2-methyl-imidazo[1,2-a]pyridin-6-yl)pyrido[4,3-d]pyrimidin-5-one] | 100 to 1000 | 100 to 1000
1000 to 10000 | 100 to 1000 | 100 to 1000 | 100 to 1000 | < 100 | 1000 to 10000 | 100 to 1000 | Cc1cn2cc(-c3ncc4c(=O)n([C@H]5CCNC(C)(C)C5)ccc4n3)cc(F)c2n1 [Compound 1497, 6-[(4S)-2,2-dimethyl-4-piperidyl]-2-(8-fluoro-2-methyl-imidazo[1,2-a]pyridin-6-yl)pyrido[4,3-d]pyrimidin-5-one] | 100 to 1000 | 100 to 1000
1000 to 10000 | 1000 to 10000 | 100 to 1000 | < 100 | < 100 | 1000 to 10000 | 100 to 1000 | Cc1cn2cc(-c3ncc4c(=O)n([C@@H]5CCN[C@@H](C)C5)ccc4n3)cc(F)c2n1 [Compound 1498, 2-(8-fluoro-2-methyl-imidazo[1,2-a]pyridin-6-yl)-6-[(2S,4R)-2-methyl-4-piperidyl]pyrido[4,3-d]pyrimidin-5-one] | 1000 to 10000 | 100 to 1000
< 100 | < 100 | < 100 | < 100 | < 100 | 100 to 1000 | 100 to 1000 | Cc1cn2nc(-c3ccc4c(=O)n(C5CCNCC5)ccc4n3)cc(C)c2n1 [Compound 1499, 2-(2,8-dimethylimidazo[1,2-b]pyridazin-6-yl)-6-(4-piperidyl)-1,6-naphthyridin-5-one] | < 100 | < 100
100 to 1000 | 100 to 1000 | < 100 | < 100 | < 100 | 100 to 1000 | 100 to 1000 | Cc1cn2cc(-c3ncc4c(=O)n([C@H]5CCN[C@@H](C)C5)ccc4n3)cc(F)c2n1 [Compound 1500, 2-(8-fluoro-2-methyl-imidazo[1,2-a]pyridin-6-yl)-6-[(2S,4S)-2-methyl-4-piperidyl]pyrido[4,3-d]pyrimidin-5-one] | 100 to 1000 | < 100
